Consider 15 compounds from paper PMC9873280, “In silico identification and biological evaluation of a selective MAP4K4 inhibitor against pancreatic cancer” (Journal of Enzyme Inhibition and Medicinal Chemistry, 2023).

Holding throughout (assay type): biochemical
Assay [1] deals with T1, MAP4K4 (Homo sapiens, UniProt O95819).
T1 construct: recombinant kinase of the ThermoFisher SelectScreen service
Put plainly: Z'LYTE kinase activity assay. The text has this:
Z'LYTE kinase activity assay on MAP4K4

For assay [2], the target named is T1, MAP4K4. Kind of assay: Z'LYTE kinase activity assay. As to conditions: 1 h incubation with ATP.
A further assay has as its target T2, MAP4K7 (Homo sapiens, UniProt Q9UKE5).
T2 construct: gene TNIK; recombinant kinase of a commercial 81-kinase panel
Kind of assay: kinase profiling panel. As to conditions: read-out: % inhibition at 150 nM.

The target in a further assay is T3, MAP4K6 (Homo sapiens, UniProt Q8N4C8).
T3 construct: gene MINK1; recombinant kinase of a commercial 81-kinase panel
T3 sequence (Q8N4C8 whole entry): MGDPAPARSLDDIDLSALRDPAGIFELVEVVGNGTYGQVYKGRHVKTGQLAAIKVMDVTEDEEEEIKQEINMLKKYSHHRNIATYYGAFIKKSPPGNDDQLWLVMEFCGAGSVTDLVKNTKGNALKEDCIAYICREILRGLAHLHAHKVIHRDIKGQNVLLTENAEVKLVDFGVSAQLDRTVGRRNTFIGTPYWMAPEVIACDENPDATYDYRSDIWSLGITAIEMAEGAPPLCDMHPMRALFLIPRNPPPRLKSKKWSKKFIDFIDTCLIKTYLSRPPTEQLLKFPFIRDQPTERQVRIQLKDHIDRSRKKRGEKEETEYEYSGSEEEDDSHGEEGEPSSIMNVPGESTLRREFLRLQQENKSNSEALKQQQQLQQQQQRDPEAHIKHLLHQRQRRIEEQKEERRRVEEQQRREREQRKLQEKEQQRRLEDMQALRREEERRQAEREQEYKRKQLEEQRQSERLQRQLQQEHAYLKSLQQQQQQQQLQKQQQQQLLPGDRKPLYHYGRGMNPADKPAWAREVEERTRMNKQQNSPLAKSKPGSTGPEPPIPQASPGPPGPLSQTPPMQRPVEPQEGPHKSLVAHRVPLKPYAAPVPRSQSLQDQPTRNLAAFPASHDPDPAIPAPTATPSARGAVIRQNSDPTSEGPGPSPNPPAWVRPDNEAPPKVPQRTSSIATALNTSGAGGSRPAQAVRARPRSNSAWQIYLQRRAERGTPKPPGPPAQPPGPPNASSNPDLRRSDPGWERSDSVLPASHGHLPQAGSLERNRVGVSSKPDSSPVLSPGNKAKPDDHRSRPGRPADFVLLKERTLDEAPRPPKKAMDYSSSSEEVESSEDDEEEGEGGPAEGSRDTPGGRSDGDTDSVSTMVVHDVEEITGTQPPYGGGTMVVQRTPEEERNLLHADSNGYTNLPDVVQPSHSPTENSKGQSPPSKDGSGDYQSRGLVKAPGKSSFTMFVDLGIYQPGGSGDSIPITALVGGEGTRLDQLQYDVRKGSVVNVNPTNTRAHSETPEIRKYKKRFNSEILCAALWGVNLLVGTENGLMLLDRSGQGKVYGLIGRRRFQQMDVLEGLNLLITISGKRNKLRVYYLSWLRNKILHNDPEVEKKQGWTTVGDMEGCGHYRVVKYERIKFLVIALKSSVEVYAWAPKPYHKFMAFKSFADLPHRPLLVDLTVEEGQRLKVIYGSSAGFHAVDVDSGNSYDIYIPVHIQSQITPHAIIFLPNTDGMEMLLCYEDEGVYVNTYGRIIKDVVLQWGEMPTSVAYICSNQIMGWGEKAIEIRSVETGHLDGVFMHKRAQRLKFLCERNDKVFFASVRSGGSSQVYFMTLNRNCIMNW
Kind of assay: kinase profiling panel. Particulars: read-out: % inhibition at 150 nM.

The next assay addresses T4, MAP4K5 (Homo sapiens, UniProt Q9Y4K4).
T4 construct: recombinant kinase of a commercial 81-kinase panel
Kind of assay: kinase profiling panel. Particulars: read-out: % inhibition at 150 nM.

T1 sequence (O95819 2-1239): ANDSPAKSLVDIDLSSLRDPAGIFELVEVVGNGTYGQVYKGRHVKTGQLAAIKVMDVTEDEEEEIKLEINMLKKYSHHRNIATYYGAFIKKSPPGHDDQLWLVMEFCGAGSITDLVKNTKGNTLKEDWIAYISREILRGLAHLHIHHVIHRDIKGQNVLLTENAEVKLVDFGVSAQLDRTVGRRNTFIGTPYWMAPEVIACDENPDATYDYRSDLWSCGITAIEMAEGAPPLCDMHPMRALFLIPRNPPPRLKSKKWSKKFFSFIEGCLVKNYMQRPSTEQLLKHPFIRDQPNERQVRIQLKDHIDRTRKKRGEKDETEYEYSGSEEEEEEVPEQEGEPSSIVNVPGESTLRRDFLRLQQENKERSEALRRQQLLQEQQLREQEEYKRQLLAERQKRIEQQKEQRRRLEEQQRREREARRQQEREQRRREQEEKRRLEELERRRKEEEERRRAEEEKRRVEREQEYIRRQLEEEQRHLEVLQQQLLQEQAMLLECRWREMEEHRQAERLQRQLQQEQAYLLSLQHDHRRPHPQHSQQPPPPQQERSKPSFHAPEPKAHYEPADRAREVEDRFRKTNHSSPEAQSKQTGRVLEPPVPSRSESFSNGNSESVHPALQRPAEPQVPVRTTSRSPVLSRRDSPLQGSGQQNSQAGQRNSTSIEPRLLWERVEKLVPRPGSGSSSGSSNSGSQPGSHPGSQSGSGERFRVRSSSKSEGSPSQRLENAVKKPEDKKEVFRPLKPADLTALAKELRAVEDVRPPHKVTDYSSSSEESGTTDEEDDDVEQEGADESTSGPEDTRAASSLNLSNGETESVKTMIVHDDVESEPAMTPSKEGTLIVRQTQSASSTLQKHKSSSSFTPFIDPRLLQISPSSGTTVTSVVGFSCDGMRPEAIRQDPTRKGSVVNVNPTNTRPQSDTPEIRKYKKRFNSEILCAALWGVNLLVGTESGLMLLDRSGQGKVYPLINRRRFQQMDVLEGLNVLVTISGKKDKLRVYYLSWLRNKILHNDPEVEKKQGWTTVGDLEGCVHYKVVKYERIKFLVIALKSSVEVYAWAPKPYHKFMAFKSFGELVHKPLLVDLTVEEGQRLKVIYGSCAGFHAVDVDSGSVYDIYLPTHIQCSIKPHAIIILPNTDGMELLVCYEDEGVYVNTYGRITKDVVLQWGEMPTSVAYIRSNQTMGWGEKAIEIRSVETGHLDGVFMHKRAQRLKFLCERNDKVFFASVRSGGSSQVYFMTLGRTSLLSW
T4 sequence (Q9Y4K4 whole entry): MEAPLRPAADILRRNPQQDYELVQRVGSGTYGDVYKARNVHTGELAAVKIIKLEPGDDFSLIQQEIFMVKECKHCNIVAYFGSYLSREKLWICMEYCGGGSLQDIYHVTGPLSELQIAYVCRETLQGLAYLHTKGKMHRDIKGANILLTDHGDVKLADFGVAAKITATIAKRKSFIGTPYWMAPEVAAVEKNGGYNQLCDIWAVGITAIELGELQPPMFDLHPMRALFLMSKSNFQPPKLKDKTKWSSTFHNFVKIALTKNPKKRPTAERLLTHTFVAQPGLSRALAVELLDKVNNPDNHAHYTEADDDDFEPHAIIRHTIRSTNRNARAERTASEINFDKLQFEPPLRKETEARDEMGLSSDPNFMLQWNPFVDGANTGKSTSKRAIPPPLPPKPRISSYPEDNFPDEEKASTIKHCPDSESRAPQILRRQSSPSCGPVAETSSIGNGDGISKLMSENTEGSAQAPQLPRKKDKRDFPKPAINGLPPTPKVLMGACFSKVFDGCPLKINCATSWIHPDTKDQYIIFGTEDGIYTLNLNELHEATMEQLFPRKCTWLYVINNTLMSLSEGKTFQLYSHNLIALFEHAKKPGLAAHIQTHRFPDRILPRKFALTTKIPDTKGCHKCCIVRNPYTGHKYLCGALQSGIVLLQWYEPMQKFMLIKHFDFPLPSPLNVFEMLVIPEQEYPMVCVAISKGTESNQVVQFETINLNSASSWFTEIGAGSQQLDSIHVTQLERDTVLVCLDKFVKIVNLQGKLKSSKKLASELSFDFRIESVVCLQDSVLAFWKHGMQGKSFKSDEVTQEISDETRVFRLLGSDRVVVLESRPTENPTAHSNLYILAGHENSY
T2 sequence (Q9UKE5 whole entry): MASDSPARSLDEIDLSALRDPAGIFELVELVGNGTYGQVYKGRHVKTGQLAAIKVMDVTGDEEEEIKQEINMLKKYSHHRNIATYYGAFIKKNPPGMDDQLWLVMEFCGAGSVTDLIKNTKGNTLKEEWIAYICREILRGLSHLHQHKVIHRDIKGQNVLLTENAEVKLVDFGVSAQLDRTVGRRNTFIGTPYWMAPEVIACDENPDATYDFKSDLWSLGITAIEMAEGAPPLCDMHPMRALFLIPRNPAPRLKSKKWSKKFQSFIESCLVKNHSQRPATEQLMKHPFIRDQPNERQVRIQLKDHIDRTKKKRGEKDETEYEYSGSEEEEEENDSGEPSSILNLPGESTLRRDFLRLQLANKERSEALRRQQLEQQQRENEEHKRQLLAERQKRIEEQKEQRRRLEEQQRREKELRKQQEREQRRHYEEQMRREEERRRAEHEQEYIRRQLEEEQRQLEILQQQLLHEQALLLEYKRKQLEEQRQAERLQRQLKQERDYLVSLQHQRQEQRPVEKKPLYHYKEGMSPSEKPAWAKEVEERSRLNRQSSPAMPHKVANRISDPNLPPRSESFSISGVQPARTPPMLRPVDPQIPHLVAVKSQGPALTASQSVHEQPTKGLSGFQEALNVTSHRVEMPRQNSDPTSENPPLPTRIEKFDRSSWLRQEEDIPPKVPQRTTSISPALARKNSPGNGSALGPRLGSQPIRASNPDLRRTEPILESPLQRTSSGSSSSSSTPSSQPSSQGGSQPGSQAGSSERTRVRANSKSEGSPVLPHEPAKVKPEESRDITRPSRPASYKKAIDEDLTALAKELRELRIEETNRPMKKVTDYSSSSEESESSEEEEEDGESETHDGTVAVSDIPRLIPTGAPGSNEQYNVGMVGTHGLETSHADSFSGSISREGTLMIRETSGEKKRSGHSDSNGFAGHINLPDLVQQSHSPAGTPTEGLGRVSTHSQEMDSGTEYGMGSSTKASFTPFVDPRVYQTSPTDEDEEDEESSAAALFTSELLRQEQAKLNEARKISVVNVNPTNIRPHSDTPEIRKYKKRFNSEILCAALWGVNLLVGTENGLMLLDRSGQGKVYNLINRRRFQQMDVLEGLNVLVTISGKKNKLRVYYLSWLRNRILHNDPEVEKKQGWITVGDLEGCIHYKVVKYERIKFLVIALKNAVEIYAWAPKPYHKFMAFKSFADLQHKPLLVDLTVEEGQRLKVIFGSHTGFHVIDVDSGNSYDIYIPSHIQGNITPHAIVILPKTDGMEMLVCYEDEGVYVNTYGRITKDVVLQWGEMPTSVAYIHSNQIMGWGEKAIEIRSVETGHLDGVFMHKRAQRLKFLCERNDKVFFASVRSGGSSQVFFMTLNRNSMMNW

On to `COc1ccccc1CNC(=O)c1ccc2c(c1)NC(=O)C(=Cc1ccc(Cl)cc1)O2` [F389-0092], for which, at MAP4K4 [1], at 1 µM the inhibition was 68%.
The same measure, in the same setting: with `COc1cccc(CNC(=O)c2ccc3c(c2)NC(=O)C(=Cc2ccc(Cl)cc2)O3)c1` [F389-0093] the figure was 70%; with `O=C1Nc2cc(C(=O)NCc3ccccc3F)ccc2OC1=Cc1ccc(Cl)cc1` [F389-0161], 72%; with `CCOc1cc(CNC(=O)c2ccc3c(c2)NC(=O)C(=Cc2ccc(Cl)cc2)O3)ccc1OC` [F389-0164], 67%.
Turning to `CN1CCN(CCNC(=O)c2ccc3c(c2)NC(=O)C(=Cc2ccc(Cl)cc2)O3)CC1` [F389-0167], the IC50 (usually the midpoint of a concentration-inhibition curve) on MAP4K4 [2] was 276 nM.
On the same count and under the same terms, with `CCOc1ccc(CNC(=O)c2ccc3c(c2)NC(=O)C(=Cc2ccc(Cl)cc2)O3)cc1OC` [F389-0169] the figure was 337 nM.
Same read-out and setting: to `O=C1Nc2cc(C(=O)NCc3cccc(F)c3)ccc2OC1=Cc1ccc(Cl)cc1` [F389-0183] belongs 334 nM.
Consider `O=C1Nc2cc(C(=O)NCc3ccccc3Cl)ccc2OC1=Cc1cccc(Cl)c1` [F389-0592], for which testing at 1 µM on MAP4K4 [1] gave an inhibition of 57%.
On MAP4K4 [2], `COc1ccc(CCNC(=O)c2ccc3c(c2)NC(=O)C(=Cc2cccc(Cl)c2)O3)cc1OC` [F389-0604] returned an IC50 of 189 nM.
As to `COc1cccc(CNC(=O)c2ccc3c(c2)NC(=O)C(=Cc2cccc(Cl)c2)O3)c1` [F389-0669], testing at 1 µM at MAP4K4 [1] gave an inhibition of 59%.
The same measure, in the same setting: to `CCOc1ccccc1CNC(=O)c1ccc2c(c1)NC(=O)C(=Cc1cccc(Cl)c1)O2` [F389-0738] belongs 57%.
On to `CCOc1ccc(CNC(=O)c2ccc3c(c2)NC(=O)C(=Cc2cccc(Cl)c2)O3)cc1OC` [F389-0745], for which half-maximal inhibition against MAP4K4 [2] (IC50) was put at 384 nM.
As for `CSc1ccc(CNC(=O)c2ccc3c(c2)NC(=O)C(=Cc2cccc(Cl)c2)O3)cc1` [F389-0746], the inhibition – broadly, the percentage by which the read-out fell short of the control – at 0.15 µM turned out to be 27% at MAP4K7, 44% at MAP4K6 and 17% on MAP4K5. Besides, the IC50 against MAP4K4 [2] came out at 121 nM.
As to `CCOc1ccc(CNC(=O)c2ccc3c(c2)NC(=O)C(=Cc2cccc(Cl)c2)O3)cc1` [F389-0750], the inhibition at 1 µM against MAP4K4 [1] was 67%.
Turning to `O=C1Nc2cc(C(=O)NCc3cccc(F)c3)ccc2OC1=Cc1cccc(Cl)c1` [F389-0759], the inhibition at 1 µM on MAP4K4 [1] was found to be 61%.
